The values that follow come from paper PMC12225141 (BMC Chemistry, 2025).

For this experiment, the target named is calf intestinal alkaline phosphatase (cIAP) (Bos taurus, UniProt P19111). As to the kind of experiment: spectrophotometric p-NPP hydrolysis assay at […] nm, commercial cIAP. Type of experiment: biochemical.
calf intestinal alkaline phosphatase (cIAP), sequence (P19111 20-506): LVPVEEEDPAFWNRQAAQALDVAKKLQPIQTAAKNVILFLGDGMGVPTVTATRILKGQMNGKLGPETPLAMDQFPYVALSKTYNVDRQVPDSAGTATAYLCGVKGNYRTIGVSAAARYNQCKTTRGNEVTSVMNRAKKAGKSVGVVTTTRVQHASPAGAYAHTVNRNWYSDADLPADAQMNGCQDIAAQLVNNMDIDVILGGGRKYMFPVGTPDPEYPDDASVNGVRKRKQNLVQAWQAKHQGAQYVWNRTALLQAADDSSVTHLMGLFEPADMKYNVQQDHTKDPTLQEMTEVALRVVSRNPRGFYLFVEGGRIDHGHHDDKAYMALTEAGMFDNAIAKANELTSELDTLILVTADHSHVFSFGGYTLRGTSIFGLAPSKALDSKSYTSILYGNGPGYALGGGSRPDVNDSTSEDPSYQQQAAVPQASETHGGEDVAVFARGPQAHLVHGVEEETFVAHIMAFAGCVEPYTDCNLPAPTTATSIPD

`CCNC(=S)NC(=O)c1cccc2ccccc12` [NA-MT, N-(ethylcarbamothioyl)-1-naphthamide] gave an IC50 of 9.875 ± 0.05 µM.

One may read the IC50 as the concentration at which inhibition is half-maximal. Read a high IC50 as a need for much substance.
